PMC10488223 (International Journal of Molecular Sciences, 2023)

Key:
[1] = target: mouse BACE-1 (Mus musculus, UniProt P56818); assay: BACE-1 activity, fluorescent peptide substrate; format: biochemical; settings: mean ± SD, four determinations; pH 4.5
Procedure: BACE-1 activity was assayed as previously reported. Briefly, the reaction mixtures contained 2.1 ng/µL mouse BACE-1 in 50 mM ammonium acetate buffer, pH 4.5 supplemented with 1 mM triton X-100, and the appropriate amount of the hybrid derivatives. The mixture was incubated for 10 min at room temperature and started by adding 100 nM final concentration of the fluorescent peptide substrate. The increase in fluorescence was followed kinetically using excitation and emission wavelengths of 320 and 420 nm, respectively. The rate was derived from the linear portion of the kinetics, usually in the first 30 min of the reaction. The known BACE-1 inhibitors I and IV were used as positive controls.

[2] = target: T1, Aβ 1–40 peptide (Homo sapiens, UniProt P05067); assay: Aβ 1–40 self-aggregation inhibition assay (thioflavine T); format: biochemical; settings: for IC50: 96 µM peptide, 37 °C, 24 h, mean ± SD, three determinations, read-out: IC50 on Aβ 1–40 fibril formation; for interference with fibril formation: up to 500 µM
T1 construct: Human β-amyloid peptide (1–40, cat. ab120479); purchased Abcam (Cambridge, UK) ab120479
Procedure: The percent inhibition due to the presence of the self-aggregation inhibition was calculated from the decrease in the fluorescence signal after the subtraction of the background fluorescence of a thioflavin T solution obtained in the same way.

[3] = target: T2, Acetylcholinesterase from Electrophorus electricus (AChE) (Electrophorus electricus, UniProt O42275); assay: biochemical; settings: for mechanism of inhibition on AChE: from Km and Vmax at different inhibitor concentrations; for IC50: mean ± SD, three determinations, pH 7.4, 500 μM acetylthiocholine
T2 construct: purchased Sigma-Aldrich (Milano, Italy)
Procedure: (§1) AChE or BuChE activity was assayed by the Ellman method as previously reported, using acetylthiocholine or butirrylthiocholine as a substrate, respectively. […] The reaction was started by the addition of 100 mU/mL AChE or BuChE, and the initial rate of the reaction was derived from the linear portion of the kinetics. […] Linear curve fits were obtained with the least-squares method, and the significance of the correlation was estimated from the squared correlation coefficient r^2.
(§2) The determination of the kinetic parameters Km and Vmax for both cholinesterase and monoamine oxidase activities were determined by measuring the initial velocity (v0) of substrate consumption/product formed at different substrate concentrations, as reported above. […] The Ki values obtained at different inhibitor concentrations were averaged to obtain a unique value of apparent Ki for each compound. Kinetic parameters and their corresponding standard errors were evaluated using a simple weighting method (Student’s t test).

[4] = target: T3, butirrylcholinesterase from equine serum (BuChE) (Equus caballus, UniProt P81908); assay: biochemical; settings: for inhibition type determined for BuChE: from Km and Vmax at different inhibitor concentrations; for IC50: mean ± SD, three determinations, pH 7.4, 500 μM butirrylthiocholine
T3 construct: butirrylcholinesterase from equine serum (BuChE); purchased Sigma-Aldrich (Milano, Italy); host or cells: equine serum
Procedure: as §1, §2

[5] = test system: SH-SY5Y cells; assay: Intracellular ROS (H2DCF-DA, cytofluorimetric analysis); format: cell-based, Human; settings: Aβ peptide
Procedure: (§3) Human neuroblastoma SH-SY5Y cell line is the most widely used model to reproduce in vitro AD [37]. This cell line was acquired from the American Type Culture Collection (20099 Sesto San Giovanni, Milan, Italy) and maintained in culture in Dulbecco Modified’s Eagle’s Medium (DMEM) (supplemented with 100 U/mL penicillin, 100 µg/mL streptomycin, and 10% thermally inactivated bovine fetal serum). The cells were appropriately differentiated: a treatment with trans retinoid acid 10 µM for 5 days was chosen (Sigma Aldrich, 20151 Milan, Italy). The medium was changed every 2–3 days, and when the cell line reached about 50% confluence, it was supplemented with the mixtures (MIX 0, 1, 2, 3, 4, 5, 6, 7) for a further 24 h. At the end of the treatment, all appropriate tests were performed.
The probe used to measure intracellular reactive oxygen species (ROS) is the molecule H2DCF-DA [39]. In fact, after its simple diffusion in cells, H2DCF-DA is cleaved by cellular esterases, which are responsible for the loss of an acetate group, transforming it into H2DCF. This compound can no longer leave the cell and binds the ROS to the highly fluorescent compound DCF. In this way, the quantification of DCF provides the content of cellular ROS. […] The fluorescence was evaluated by cytometric analysis (FACS Accury, Becton Dickinson, Milan, Italy). […]

[6] = test system: SH-SY5Y cells; assay: Cell viability by MTT assay; format: cell-based, Human
Procedure: as §3, with “The medium was changed every 2–3 days, and when the cell line reached about 50% confluence, it was supplemented with the mixtures (MIX 0, 1, 2, 3, 4, 5, 6, 7) for a further 24 h.” left out
The use of 3-(4,5-dimethyl[…])-2,5-diphenyltetrazole (MTT) bromide allowed the determination of cell viability for the presence of active enzymes within mitochondria in living cells. Mitochondrial […] can reduce MTT by producing colorimetric modification whose spectrophotometric measurement provides valuable information on cell viability. An amount of 8 × 10^3 cells/well was plated onto 96-well plates. After 24 h, the culture medium was replaced with fresh phenol-free medium containing a solution of MTT (0.5 mg/mL), and after 4 h of incubation, 100 μL 10% SDS was added to each well to solubilize the formazan crystals. The optical density was measured at wavelengths of 540 and 690 nm using a spectrophotometric reader (X MARK Spectrophotometer Microplate Bio-Rad).
Aβ 25 μM peptide was incubated alone or in the presence the specific amount of each hybrid compound [28] for 24 h at room temperature prior to the cell treatment. […]

[7] = test system: SH-SY5Y cells; assay: Malondialdehyde (MDA), TBA reaction; format: cell-based, Human; settings: Aβ peptide
Procedure: Lipid peroxidation was evaluated by measuring the reaction products of MDA with thiobarbituric acid (TBA), which forms a colorimetric product proportional to the MDA present. The cells were placed in 10 cm diameter cell culture and the following day were treated as indicated. At the end of the treatment, the cells were scraped, and then the suspension was subjected to freezing/thawing cycles. Subsequently, 36 mM TBA dissolved in glacial acetic acid was added and the mixture heated for 60 min to 100 °C. The reaction was interrupted by placing the vials on ice for 10 min, and a spectrophotometric reading was carried out at 532 nm.

[8] = test system: cleaved caspase 3 in SH-SY5Y cells; assay: Cleaved caspase-3 expression, Western blotting; format: cell-based, Human; settings: mixtures 24 h; Aβ peptide vs untreated cells
Procedure: The total lysates of SH-SY5Y cells were obtained from 6-multiwells. Lysates were taken after the cells were exposed to a preheated lysis buffer (80 °C) containing 50 mM of Tris-HCl (pH 6.8), 2% of SDS, and a protease inhibitor mixture and immediately boiled for 2 min. The protein concentration was determined using a DCA protein assay. After the addition of 0.05% bromophenol blue, 10% glycerol, and 2% β-mercaptoethanol, the samples were boiled again and loaded onto 12% SDS-polyacrylamide gels. Following electrophoresis, the polypeptides were transferred to nitrocellulose filters and blocked with TTBS/milk (TBS 1%, Tween 20, and nonfat dry milk 5%), and then the antibodies were used to reveal the respective antigens. Primary antibodies were incubated overnight at 4 °C, and, after washing, the filters were exposed to horseradish peroxidase-conjugated secondary antibody for 1 h at room temperature. The blots were developed using the chemiluminescence procedure. Experiments of immunoblot analysis were carried out in two ways: (a) electrophoresis of proteins obtained from cell extracts, as described; and (b) electrophoresis of proteins obtained by the formation of mixtures in the test tubes (in the absence of cells). […]

Chain of mouse BACE-1 (P56818 46-501): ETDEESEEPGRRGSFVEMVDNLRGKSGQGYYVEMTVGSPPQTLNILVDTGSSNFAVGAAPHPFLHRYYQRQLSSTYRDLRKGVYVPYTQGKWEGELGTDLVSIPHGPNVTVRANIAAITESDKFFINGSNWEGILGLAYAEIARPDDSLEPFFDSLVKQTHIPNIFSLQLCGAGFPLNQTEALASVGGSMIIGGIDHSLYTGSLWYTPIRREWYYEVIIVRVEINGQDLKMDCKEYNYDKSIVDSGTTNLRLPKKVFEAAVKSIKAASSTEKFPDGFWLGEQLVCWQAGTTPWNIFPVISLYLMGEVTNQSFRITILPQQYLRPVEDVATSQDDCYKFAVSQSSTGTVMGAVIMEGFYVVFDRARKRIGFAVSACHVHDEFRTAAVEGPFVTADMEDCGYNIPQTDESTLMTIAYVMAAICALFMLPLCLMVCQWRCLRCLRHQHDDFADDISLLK
T2 sequence (O42275 24-633): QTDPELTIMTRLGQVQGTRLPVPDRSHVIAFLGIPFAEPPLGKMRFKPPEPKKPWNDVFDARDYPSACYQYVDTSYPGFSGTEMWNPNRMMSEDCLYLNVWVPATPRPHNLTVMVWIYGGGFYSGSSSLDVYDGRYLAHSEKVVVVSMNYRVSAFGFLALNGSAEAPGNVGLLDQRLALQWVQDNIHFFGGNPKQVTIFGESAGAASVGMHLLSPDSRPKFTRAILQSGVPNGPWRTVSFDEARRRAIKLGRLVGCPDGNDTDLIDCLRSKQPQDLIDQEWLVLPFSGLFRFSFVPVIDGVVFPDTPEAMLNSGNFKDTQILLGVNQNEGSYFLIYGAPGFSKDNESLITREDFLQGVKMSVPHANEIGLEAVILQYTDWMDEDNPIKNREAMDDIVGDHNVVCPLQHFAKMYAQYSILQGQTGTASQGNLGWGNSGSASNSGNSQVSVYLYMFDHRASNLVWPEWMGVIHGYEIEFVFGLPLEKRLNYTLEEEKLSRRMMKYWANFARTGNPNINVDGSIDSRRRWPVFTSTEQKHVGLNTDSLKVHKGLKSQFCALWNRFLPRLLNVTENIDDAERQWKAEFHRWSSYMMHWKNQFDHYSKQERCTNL
T3 sequence (P81908 whole entry): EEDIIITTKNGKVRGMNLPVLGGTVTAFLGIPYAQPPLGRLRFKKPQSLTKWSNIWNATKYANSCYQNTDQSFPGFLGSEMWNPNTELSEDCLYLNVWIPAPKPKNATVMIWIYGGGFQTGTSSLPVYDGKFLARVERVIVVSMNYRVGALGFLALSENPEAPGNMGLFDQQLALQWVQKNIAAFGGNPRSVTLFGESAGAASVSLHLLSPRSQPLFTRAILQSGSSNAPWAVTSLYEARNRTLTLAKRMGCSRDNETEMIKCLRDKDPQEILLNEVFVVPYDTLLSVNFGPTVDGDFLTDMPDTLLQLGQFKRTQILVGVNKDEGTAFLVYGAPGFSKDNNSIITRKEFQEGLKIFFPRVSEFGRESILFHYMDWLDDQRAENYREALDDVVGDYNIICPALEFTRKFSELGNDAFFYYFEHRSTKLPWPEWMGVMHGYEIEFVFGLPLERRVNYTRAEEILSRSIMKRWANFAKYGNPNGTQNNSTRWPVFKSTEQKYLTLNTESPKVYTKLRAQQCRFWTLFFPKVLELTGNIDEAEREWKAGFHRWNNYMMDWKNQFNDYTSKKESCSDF
T1 sequence (P05067 672-711): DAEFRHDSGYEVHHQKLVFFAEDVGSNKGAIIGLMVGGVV

Compound | IC50 [1] | IC50 [2] | mechanism of inhibition on AChE [3] | IC50 [3] | inhibition type determined for BuChE [4] | IC50 [4] | ROS in the cells ([5]; after 48 and 72 h) | ROS in the cells ([5]; after 24 h) | reduction in cell vitality ([6]; 48 and 72 h, at the concentrations considered (0.1–100 μM)) | cell viability ([6]; Aβ peptide 0.1 μM) | cell viability ([6]; Aβ peptide 1, 10 and 100 μM) | malondialdehyde accumulation ([7]; 48 and 72 h) | malondialdehyde accumulation ([7]; after 24 h) | expression of the cleaved form of caspase 3 [8] | interference with fibril formation [2]
CC(=O)Oc1ccc(CCOC(=O)C2CCN(Cc3ccccc3)CC2)cc1OC(C)=O [HT1a] | 16.9 ± 0.1 µM | 106 ± 11.1 µM | mixed | 4.3 ± 0.7 µM | mixed | 4.2 ± 0.4 µM | – | – | – | – | – | – | – | – | –
Aβ peptide: Human β-amyloid peptide (1–40, cat. ab120479) from Abcam | – | – | – | – | – | – | no longer detectable | significant increase in ROS | more than 20% | ineffective | gradual and increasing reduction in cell viability | increasing accumulation of malondialdehyde | absent | increased expression of caspase 3 | –
O=C(OCCc1ccc(O)c(O)c1)C1CCN(Cc2ccccc2)CC1 [HT1] | 11.3 ± 1.2 µM | 375 ± 143 µM | uncompetitive | 6.5 ± 0.8 µM | mixed | 20.3 ± 2.4 µM | – | – | – | – | – | – | – | – | –
O=C(OCCc1ccc(O)cc1)C1CCN(Cc2ccccc2)CC1 [HT4] | 52.2 ± 2.1 µM | – | uncompetitive | 4.9 ± 0.5 µM | noncompetitive | 22.9 ± 7.1 µM | – | – | – | – | – | – | – | – | did not interfere with fibril formation
COc1cc(CCOC(=O)C2CCN(Cc3ccccc3)CC2)ccc1OC(C)=O [HT3a] | 19.7 ± 0.7 µM | – | uncompetitive | 2.6 ± 0.2 µM | noncompetitive | 4.3 ± 0.9 µM | – | – | – | – | – | – | – | – | did not interfere with fibril formation
O=C(OCCc1cc(O)c(O)cc1[N+](=O)[O-])C1CCN(Cc2ccccc2)CC1 [HT2] | 128 ± 42 µM | 418 ± 41.1 µM | noncompetitive | 3.8 ± 0.3 µM | mixed | 31.8 ± 5.7 µM | – | – | – | – | – | – | – | – | –
CC(=O)Oc1ccc(CCOC(=O)C2CCN(Cc3ccccc3)CC2)cc1 [HT4a] | 115 ± 5.1 µM | – | uncompetitive | 2.9 ± 0.2 µM | mixed | 4.1 ± 0.5 µM | – | – | – | – | – | – | – | – | did not interfere with fibril formation
COc1cc(CCOC(=O)C2CCN(Cc3ccccc3)CC2)ccc1O [HT3] | 76.8 ± 3 µM | – | uncompetitive | 4 ± 0.4 µM | mixed | 7.2 ± 0.9 µM | – | – | – | – | – | – | – | – | did not interfere with fibril formation
